Data published in PubChem BioAssay (NCI).
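A five-concentration, 48-hour dose response in 96-well plates underlies each endpoint, interpolated linearly between surrounding concentrations. TGI: total growth inhibition.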

How the values were obtained:
Assay in all cases: DTP human tumour cell line panel, 48 h
UACC-257 melanoma = test system: UACC-257 melanoma
HOP-18 NSCLC = test system: HOP-18 NSCLC
DMS 114 small cell lung = test system: DMS 114 small cell lung
CCRF-CEM leukemia = test system: CCRF-CEM leukemia
SN12C renal = test system: SN12C renal
LXFL 529 NSCLC = test system: LXFL 529 NSCLC
KM12 colon = test system: KM12 colon
CAKI-1 renal = test system: CAKI-1 renal
SK-OV-3 ovarian = test system: SK-OV-3 ovarian
OVCAR-3 ovarian = test system: OVCAR-3 ovarian
IGROV1 ovarian = test system: IGROV1 ovarian
XF 498 CNS = test system: XF 498 CNS
LOX IMVI melanoma = test system: LOX IMVI melanoma
KM20L2 colon = test system: KM20L2 colon
786-0 renal = test system: 786-0 renal
SNB-78 CNS = test system: SNB-78 CNS
SF-295 CNS = test system: SF-295 CNS
TK-10 renal = test system: TK-10 renal
ACHN renal = test system: ACHN renal
DLD-1 colon = test system: DLD-1 colon
HL-60(TB) leukemia = test system: HL-60(TB) leukemia
MALME-3M melanoma = test system: MALME-3M melanoma
M19-MEL melanoma = test system: M19-MEL melanoma
UO-31 renal = test system: UO-31 renal
HCT-15 colon = test system: HCT-15 colon
SK-MEL-28 melanoma = test system: SK-MEL-28 melanoma
EKVX NSCLC = test system: EKVX NSCLC
HT29 colon = test system: HT29 colon
UACC-62 melanoma = test system: UACC-62 melanoma
HOP-92 NSCLC = test system: HOP-92 NSCLC
COLO 205 colon = test system: COLO 205 colon
HCC-2998 colon = test system: HCC-2998 colon
RPMI-8226 leukemia = test system: RPMI-8226 leukemia
DMS 273 small cell lung = test system: DMS 273 small cell lung
MOLT-4 leukemia = test system: MOLT-4 leukemia
NCI-H23 lung = test system: NCI-H23 lung
A549 NSCLC = test system: A549 NSCLC
NCI-H522 lung = test system: NCI-H522 lung
HCT-116 colon = test system: HCT-116 colon
NCI-H460 lung = test system: NCI-H460 lung
HOP-62 NSCLC = test system: HOP-62 NSCLC
SNB-75 CNS = test system: SNB-75 CNS
OVCAR-8 ovarian = test system: OVCAR-8 ovarian
SK-MEL-5 melanoma = test system: SK-MEL-5 melanoma
M14 melanoma = test system: M14 melanoma
K-562 leukemia = test system: K-562 leukemia
SF-268 CNS = test system: SF-268 CNS
OVCAR-4 ovarian = test system: OVCAR-4 ovarian
SW-620 colon = test system: SW-620 colon
U251 CNS = test system: U251 CNS
SF-539 CNS = test system: SF-539 CNS
SK-MEL-2 melanoma = test system: SK-MEL-2 melanoma
SR leukemia = test system: SR leukemia
A498 renal = test system: A498 renal
SNB-19 CNS = test system: SNB-19 CNS
OVCAR-5 ovarian = test system: OVCAR-5 ovarian
NCI-H226 lung = test system: NCI-H226 lung

Measured: TGI

O=C(NC(=S)Nc1ccccc1)c1ccc([N+](=O)[O-])cc1
86.6 µM: NCI-H522 lung
> 100 µM: UACC-257 melanoma | HOP-18 NSCLC | CCRF-CEM leukemia | SN12C renal | LXFL 529 NSCLC | KM12 colon | CAKI-1 renal | SK-OV-3 ovarian | OVCAR-3 ovarian | IGROV1 ovarian | XF 498 CNS | LOX IMVI melanoma | KM20L2 colon | 786-0 renal | SNB-78 CNS | SF-295 CNS | TK-10 renal | ACHN renal | DLD-1 colon | HL-60(TB) leukemia | MALME-3M melanoma | M19-MEL melanoma | UO-31 renal | HCT-15 colon | SK-MEL-28 melanoma | EKVX NSCLC | HT29 colon | UACC-62 melanoma | HOP-92 NSCLC | COLO 205 colon | HCC-2998 colon | RPMI-8226 leukemia | DMS 273 small cell lung | MOLT-4 leukemia | NCI-H23 lung | A549 NSCLC | HCT-116 colon | NCI-H460 lung | HOP-62 NSCLC | SNB-75 CNS | OVCAR-8 ovarian | SK-MEL-5 melanoma | M14 melanoma | K-562 leukemia | SF-268 CNS | OVCAR-4 ovarian | SW-620 colon
44.5 µM: DMS 114 small cell lung

Nc1nc(SCCC/C=C/B(O)O)nc2c1ncn2C1OC(COP(=O)(O)O)C(O)C1O (stereo not drawn)
> 203 µM: UACC-257 melanoma | HOP-18 NSCLC | DMS 114 small cell lung | CCRF-CEM leukemia | SN12C renal | KM12 colon | CAKI-1 renal | SK-OV-3 ovarian | OVCAR-3 ovarian | U251 CNS | IGROV1 ovarian | SF-539 CNS | XF 498 CNS | LOX IMVI melanoma | KM20L2 colon | 786-0 renal | SNB-78 CNS | SF-295 CNS | TK-10 renal | SK-MEL-2 melanoma | ACHN renal | DLD-1 colon | HL-60(TB) leukemia | MALME-3M melanoma | M19-MEL melanoma | UO-31 renal | HCT-15 colon | SK-MEL-28 melanoma | HT29 colon | UACC-62 melanoma | SR leukemia | HOP-92 NSCLC | COLO 205 colon | A498 renal | RPMI-8226 leukemia | DMS 273 small cell lung | MOLT-4 leukemia | NCI-H23 lung | A549 NSCLC | NCI-H522 lung | HCT-116 colon | NCI-H460 lung | HOP-62 NSCLC | SNB-75 CNS | OVCAR-8 ovarian | SK-MEL-5 melanoma | SNB-19 CNS | M14 melanoma | K-562 leukemia | SF-268 CNS | OVCAR-5 ovarian | OVCAR-4 ovarian | SW-620 colon | NCI-H226 lung
